# Source: paper PMC1664607 (PLoS Medicine, 2006)
# Like-named read-outs stand apart in the source and are kept apart here.
# How the values were obtained:
# S. typhimurium TA1535 = experiment: Bacterial reverse mutation (BRM) test; assay type: cell-based; conditions: S9 mix −; positive control NaN3 0.5 μg/plate
# Method: The BRM test was performed in accordance with OECD Guideline 471 using Salmonella tyiphimurium TA98, TA100, TA1535, and TA1537, and Escherichia coli WP2 uvrA [11]. Each bacterial strain was pre-cultured at 37 °C for 18 h using a nutrient broth (Nissui Pharmaceutical; http://www.nissui-pharm.co.jp/index_e.html). After adjustment to 2.4 at OD660 nm, each bacterial suspension was added to a test tube containing the designated compound in the absence or presence of rat liver microsome (S9) mix. After a 20-min incubation at 37 °C, top agar was added to each test tube and the contents were poured into minimum essential medium (Oriental Yeast; http://www.oyc.co.jp/e/index.htm). The number of revertants was counted 48 h after incubation at 37 °C.
# [1] = test system: M. tuberculosis ATCC 25618 (H37Rv); experiment: Susceptibility testing (agar dilution MIC); assay type: cell-based; conditions: Mycobacterium tuberculosis, 336 h
# [2] = test system: M. tuberculosis ATCC 35837 (H37Rv-E-R); experiment: microbe, parasite or virus in culture; assay type: cell-based; conditions: Mycobacterium tuberculosis, 336 h
# [3] = test system: M. tuberculosis ATCC 35820 (H37Rv-S-R); experiment: microbe, parasite or virus in culture; assay type: cell-based; conditions: Mycobacterium tuberculosis, 336 h
# [4] = test system: M. tuberculosis ATCC 35838 (H37Rv-R-R); experiment: microbe, parasite or virus in culture; assay type: cell-based; conditions: Mycobacterium tuberculosis, 336 h
# [5] = test system: M. tuberculosis ATCC 35822 (H37Rv-H-R); experiment: microbe, parasite or virus in culture; assay type: cell-based; conditions: Mycobacterium tuberculosis, 336 h
# M. tuberculosis Kurono = experiment: Therapeutic efficacy in an experimental mouse model of chronic TB; assay type: in vivo, ICR mice; conditions: for Dose that could produce a CFU reduction of at least 95%: lung; for Dose that could produce a CFU reduction of at least 95% / Dose groups that showed a significant decrease in pulmonary viable bacterial count when compared with the vehicle control group: once daily for 28 d
# [6] = test system: intracellular M. tuberculosis H37Rv in THP-1 cells; experiment: Activity against intracellular mycobacteria, 4-h pulsed exposure; assay type: cell-based, M. tuberculosis; human THP-1 cells; conditions: further 68-h culture
# [7] = test system: M. tuberculosis ATCC 35812 (Kurono); experiment: Susceptibility testing (agar dilution MIC); assay type: cell-based; conditions: Mycobacterium tuberculosis, ATCC35812, 336 h
# [8] = Plasma levels in an experimental mouse model of TB; conditions: in vivo, po
# CYP2C8/9 = experiment: Tolubutamide methylhydroxylation in human liver microsomes; assay type: in vitro ADME; conditions: 100 μM; 400 μM tolbutamide
# [9] = test system: clinically isolated M. tuberculosis; experiment: microbe, parasite or virus in culture; assay type: cell-based; conditions: Mycobacterium tuberculosis; read-out: MIC90
# [10] = mouse, in vivo, po
# M. tuberculosis = experiment: Activity of the main metabolite (test not described); conditions: metabolite produced in the presence of M. tuberculosis
# [11] = 7H11 agar, 37 °C, 14 d, read-out: MIC
compound,measurement,setting,value
"[N-]=[N+]=[N-].[Na+] [NaN3, sodium azide]",Revertants/Plate,S. typhimurium TA1535,6 174 Revertants/Plate
O=[N+]([O-])c1cn2c(n1)OC[C@@H](OCc1ccc(OC(F)(F)F)cc1)C2 [PA-824],MIC,[1],0.2 mg/L
same,MIC,[2],0.2 mg/L
same,MIC,[3],0.2 mg/L
same,MIC,[4],0.1 mg/L
same,MIC,[5],0.05 mg/L
same,Log of Viable Counts/Lung,"M. tuberculosis Kurono; 1.25 mg/kg, 672 h","6.905 ± 0.382^c:NS, d:NS"
same,Log of Viable Counts/Lung,"M. tuberculosis Kurono; 2.5 mg/kg, 672 h","6.567 ± 0.108^c:NS, d:NS"
same,Log of Viable Counts/Lung,"M. tuberculosis Kurono; 5 mg/kg, 672 h","6.329 ± 0.303^c:NS, d:NS"
same,Log of Viable Counts/Lung,"M. tuberculosis Kurono; 10 mg/kg, 672 h","6.244 ± 0.728^c:NS, d:NS"
same,Log of Viable Counts/Lung,"M. tuberculosis Kurono; 20 mg/kg, 672 h","4.688 ± 0.944^c:**, d:**"
same,Log of Viable Counts/Lung,"M. tuberculosis Kurono; 40 mg/kg, 672 h","5.145 ± 0.444^c:**, d:**"
same,Activity against intracellular M. tuberculosis H37Rv,[6],poor activity
same,MIC,[7],0.2 mg/L
"NC(=O)c1cnccn1 [PZA, pyrazinamide]",Log of Viable Counts/Lung,"M. tuberculosis Kurono; 40 mg/kg, 672 h","6.942 ± 0.205^a:NS, b:NS"
same,Log of Viable Counts/Lung,"M. tuberculosis Kurono; 80 mg/kg, 672 h","6.168 ± 0.774^a:*, b:NS"
same,Log of Viable Counts/Lung,"M. tuberculosis Kurono; 160 mg/kg, 672 h","5.823 ± 0.628^a:**, b:*"
same,Log of Viable Counts/Lung,"M. tuberculosis Kurono; 320 mg/kg, 672 h","5.009 ± 0.539^a:**, b:**"
same,Dose that could produce a CFU reduction of at least 95%,M. tuberculosis Kurono,160 mg/kg
same,Dose groups that showed a significant decrease in pulmonary viable bacterial count when compared with the vehicle control group,M. tuberculosis Kurono,"80, 160, and 320 mg/kg"
same,AUC(0-t),[8],197 µg·h/mL
same,concentration at 0.083 h,[8],49.6 ± 11.2 µg/mL
same,concentration at 0.25 h,[8],59.1 ± 14.1 µg/mL
same,concentration at 0.5 h,[8],63.2 ± 28.9 µg/mL
same,concentration at 1 h,[8],60.2 ± 18.7 µg/mL
same,concentration at 2 h,[8],35.5 ± 6.45 µg/mL
same,concentration at 4 h,[8],18.4 ± 3.09 µg/mL
same,AUC(0-t),[8]; 100 mg/kg,198 µg·h/mL
same,Cmax,[8]; 100 mg/kg,63.2 µg/mL
same,Tmax,[8]; 100 mg/kg,0.5 h
same,half-life,[8]; 100 mg/kg,1.1 h
"O=c1c(O)c(-c2ccc(O)c(O)c2)oc2cc(O)cc(O)c12 [Quercetin, quercetin]",Percent of Control,CYP2C8/9,30.6% of Control
"CO[C@H]1/C=C/O[C@@]2(C)Oc3c(C)c(O)c4c(O)c(c(/C=N/N5CCN(C)CC5)c(O)c4c3C2=O)NC(=O)/C(C)=C\C=C\[C@H](C)[C@H](O)[C@@H](C)[C@@H](O)[C@@H](C)[C@H](OC(C)=O)[C@@H]1C [RFP, rifampicin]",MIC,[1]; [11],0.78 mg/L
same,MIC,[2],0.2 mg/L
same,MIC,[3],0.78 mg/L
same,MIC,[4],> 100 mg/L
same,MIC90,[9],0.288 mg/L
same,MIC,[5],0.39 mg/L
same,Log of Viable Counts/Lung,"M. tuberculosis Kurono; 1.25 mg/kg once daily for 28 d (4 weeks), mean ± S.D., n = 5","7.409 ± 0.201^c:NS, d:NS"
same,Log of Viable Counts/Lung,"M. tuberculosis Kurono; 10 mg/kg once daily for 28 d (4 weeks), mean ± S.D., n = 5","3.972 ± 0.596^c:**, d:**"
same,Log of Viable Counts/Lung,"M. tuberculosis Kurono; 20 mg/kg once daily for 28 d (4 weeks), mean ± S.D., n = 5","3.279 ± 0.330^c:**, d:**"
same,Dose that could produce a CFU reduction of at least 95%,M. tuberculosis Kurono,3.5 mg/kg
same,MIC,[7]; [11],0.39 mg/L
same,AUC(0-t),[8]; 5 mg/kg,48.2 µg·h/mL
same,Cmax,[8]; 5 mg/kg,5.1 µg/mL
same,Tmax,[8]; 5 mg/kg,6 h
same,"Concentration, 0.5 h",[10],3.33 ± 0.87 µg/mL
same,"Concentration, 1 h",[10],4.49 ± 1.04 µg/mL
same,"Concentration, 2 h",[10],4.52 ± 1.90 µg/mL
same,"Concentration, 4 h",[10],3.82 ± 0.70 µg/mL
same,"Concentration, 6 h",[10],5.10 ± 1.63 µg/mL
same,"Concentration, 16 h",[10],0.660 ± 0.260 µg/mL
"CN[C@@H]1[C@H](O[C@H]2[C@H](O[C@H]3[C@H](O)[C@@H](O)[C@H](N=C(N)N)[C@@H](O)[C@@H]3N=C(N)N)O[C@@H](C)[C@]2(O)C=O)O[C@@H](CO)[C@H](O)[C@H]1O [SM, streptomycin]",MIC,[1],1.56 mg/L
same,MIC,[2],0.78 mg/L
same,MIC,[3],> 100 mg/L
same,MIC,[4],0.78 mg/L
same,MIC90,[9],2.94 mg/L
same,MIC,[5],0.78 mg/L
same,Log of Viable Counts/Lung,"M. tuberculosis Kurono; 20 mg/kg, 672 h","6.000 ± 0.553^a:**, b:*"
same,Log of Viable Counts/Lung,"M. tuberculosis Kurono; 40 mg/kg, 672 h","6.040 ± 0.361^a:**, b:*"
same,Log of Viable Counts/Lung,"M. tuberculosis Kurono; 80 mg/kg, 672 h","5.739 ± 0.309^a:**, b:**"
same,Log of Viable Counts/Lung,"M. tuberculosis Kurono; 160 mg/kg, 672 h","5.184 ± 0.461^a:**, b:**"
same,Dose that could produce a CFU reduction of at least 95%,M. tuberculosis Kurono,40 mg/kg
same,Dose groups that showed a significant decrease in pulmonary viable bacterial count when compared with the vehicle control group,M. tuberculosis Kurono,"20, 40, 80, and 160 mg/kg"
same,MIC,[7],0.78 mg/L
"Nc1ccc(S(=O)(=O)Nc2ccnn2-c2ccccc2)cc1 [Sulfaphenazole, sulfaphenazole]",Percent of Control,CYP2C8/9,25.5% of Control
CC1(COc2ccc(N3CCC(Oc4ccc(OC(F)(F)F)cc4)CC3)cc2)Cn2ccnc2O1 (stereo not shown) [desnitro-imidazooxazole],Activity of the main metabolite,M. tuberculosis,non-active
